Reference: ChEMBL document CHEMBL1156829 (Proc Natl Acad Sci U S A, 2008)
pEC50: −log10 of the molar value.

Tests used:
[1] = test system: Plasmodium falciparum; test: NOVARTIS: Inhibition of Plasmodium falciparum 3D7 (drug-susceptible) proliferation in erythrocyte-based infection assay; type: functional, organism-based; conditions: Plasmodium falciparum, 3D7
[2] = test system: Plasmodium falciparum; test: NOVARTIS: Inhibition of Plasmodium falciparum W2 (drug-resistant) proliferation in erythrocyte-based infection assay; type: functional, organism-based; conditions: Plasmodium falciparum, W2; read-out: EC50
[3] = NOVARTIS: Cytotoxicity against human hepatocellular carcinoma cell line (Huh7); type: toxicity, cell-based, Huh-7; conditions: Huh7 cells (hepatocellular carcinoma cell line)

OCCNc1nc(Nc2ccccc2O)nc2ccccc12
pEC50 [1]: 5.73 | pEC50 [2]: 5.61 | CC50 [3]: 58.7 µM

Cn1nc(C(=O)Nc2ccc(F)c(Cl)c2)c2c1-c1ccccc1S(=O)(=O)C2
pEC50 [1]: < 4.90 | pEC50 [2]: 5.44 | CC50 [3]: > 100 µM

COc1cccc(OC)c1C(=O)Nn1c(-c2cccc(C)c2)nc2ccccc2c1=O
pEC50 [1]: < 5.90 | pEC50 [2]: < 5.99 | CC50 [3]: > 10 µM

COc1ccccc1CN1CCc2nc(N3CCCCC3)sc2C1
pEC50 [1]: 6.34 | pEC50 [2]: 6.56 | CC50 [3]: > 10 µM

CCOc1ccc(Nc2nc(N)c3ccccc3n2)cc1
pEC50 [1]: 6.06 | pEC50 [2]: 5.80 | CC50 [3]: 2.37 µM

O=c1c2ccccc2[nH]c2ccc(F)cc12
pEC50 [1]: 6.73 | pEC50 [2]: 6.68 | CC50 [3]: > 100 µM

CC1(C)C2CCC1(C)C(NCc1ccccc1O)C2 (stereo not given)
pEC50 [1]: 6.97 | pEC50 [2]: 7.50 | CC50 [3]: 48.6 µM

CC(=O)N1CC(=NNC(=O)C(C)Nc2c(C)cccc2C)c2ccccc21 (stereo not given)
pEC50 [1]: 5.71 | pEC50 [2]: 5.85 | CC50 [3]: > 10 µM

CN=C1S/C(=C\c2ccc(OCC(=O)O)c(OC)c2)C(=O)N1C
pEC50 [1]: < 5.90 | pEC50 [2]: < 6.15 | CC50 [3]: > 10 µM

COc1cc(C2CC(=O)NC3=C2C(=O)CC(c2ccccc2Cl)C3)ccc1O (stereo not given)
pEC50 [1]: 6.09 | pEC50 [2]: 6.96 | CC50 [3]: > 100 µM

CC1CNC2C(C)C3C(CC4C5CCC6CC(N)CCC6(C)C5CCC43C)OC2(O)C1 (stereo not given)
pEC50 [1]: 6.06 | pEC50 [2]: > 7.90 | CC50 [3]: > 10 µM

COc1ccc(-n2nc(C(=O)NCC(=O)NCCCN3CC(C)CC(C)C3)c3ccccc3c2=O)cc1Cl (stereo not given)
pEC50 [1]: < 5.13 | pEC50 [2]: 5.73 | CC50 [3]: 76.4 µM

C[n+]1c2ccccc2nc2ccc(NC3CCCCC3N)cc21.[O-][Cl+3]([O-])([O-])[O-] (stereo not given)
pEC50 [1]: 6.59 | pEC50 [2]: 6.92 | CC50 [3]: 4.21 µM

CN1C=C(c2ccc3ccccc3n2)C(C[N+](=O)[O-])c2ccccc21 (stereo not given)
pEC50 [1]: 6.10 | pEC50 [2]: 5.67 | CC50 [3]: > 10 µM

Oc1ccc(CN2CCCCC2)nc1-c1ccccc1
pEC50 [1]: 6.62 | pEC50 [2]: 7.06 | CC50 [3]: > 100 µM

Cc1n(C)c2ccccc2[n+]1CC(=O)c1ccccc1
pEC50 [1]: 6.95 | pEC50 [2]: 6.26 | CC50 [3]: > 100 µM

CC(C)CNC(=O)c1cnc(NCCCN2CCCC2)nc1NC1CCCC1
pEC50 [1]: 6.11 | pEC50 [2]: < 5.90 | CC50 [3]: > 10 µM

N#Cc1c2c(c(N3CCN(c4ccccn4)CC3)n3c1nc1ccccc13)CCC2
pEC50 [1]: 5.63 | pEC50 [2]: 5.93 | CC50 [3]: > 100 µM

COc1ccc(C=NNc2nc3cc(Cl)ccc3[nH]2)cc1OC
pEC50 [1]: 6.62 | pEC50 [2]: 6.95 | CC50 [3]: > 89.8 µM

C1=C(c2ccccc2)CCN(c2ncnc3c2nc2n3CCCCC2)C1
pEC50 [1]: 5.89 | pEC50 [2]: 5.97 | CC50 [3]: > 85.8 µM

CCN(CC)C(=O)COc1ccc(-c2nnc(N3CCCCC3)c3ccccc23)cc1
pEC50 [1]: 5.76 | pEC50 [2]: 6.29 | CC50 [3]: > 100 µM

CN(Cc1ccsc1)C(=O)CCc1nnc(CCCc2ccccc2)o1
pEC50 [1]: < 5.90 | pEC50 [2]: 6.57 | CC50 [3]: > 10 µM

CCN1/C(=C/c2cccc[n+]2C)Sc2cc(NC(C)=O)ccc21
pEC50 [1]: 5.85 | pEC50 [2]: < 5.90 | CC50 [3]: > 10 µM

CCOc1ccccc1C1NC(=O)NC(C)=C1C(=O)OCC(F)(F)C(F)(F)F (stereo not given)
pEC50 [1]: < 5.90 | pEC50 [2]: < 6.04 | CC50 [3]: > 10 µM

CC1(C)CN=C(NCc2ccccc2Cl)S1
pEC50 [1]: 5.13 | pEC50 [2]: 5.83 | CC50 [3]: 34.2 µM

CCCN1CCN(CCCNC(=O)c2ccc3c(c2)sc2nc(-c4ccc(OC)cc4)cn23)CC1
pEC50 [1]: 5.61 | pEC50 [2]: 5.36 | CC50 [3]: > 100 µM

c1ccc(C[C@H]2CN(c3ccc4ccccc4c3)CCN2CCNCC2CCCO2)cc1 (stereo not given in full)
pEC50 [1]: 6.56 | pEC50 [2]: 6.42 | CC50 [3]: 2.54 µM

O=C1c2ccccc2-c2nc3ccc(C(F)(F)F)cc3nc21
pEC50 [1]: 5.94 | pEC50 [2]: 5.90 | CC50 [3]: > 10 µM

CCCN1CCc2c(sc3nc(SCC(=O)c4ccccc4)nc(N)c23)C1
pEC50 [1]: 5.85 | pEC50 [2]: 6.00 | CC50 [3]: > 100 µM

Cc1ccc(-c2cc(C(=O)OCC(=O)c3cccc([N+](=O)[O-])c3)c3cc(C)ccc3n2)cc1
pEC50 [1]: < 4.90 | pEC50 [2]: 5.96 | CC50 [3]: > 100 µM

COC(=O)c1c(-c2c(F)cccc2Cl)noc1/C=C/Nc1ccc(OC)cc1
pEC50 [1]: 6.37 | pEC50 [2]: < 5.90 | CC50 [3]: > 10 µM

C[n+]1c(-c2ccccc2)cc(-c2ccccc2)cc1-c1ccccc1
pEC50 [1]: < 5.99 | pEC50 [2]: < 6.23 | CC50 [3]: > 10 µM

CC(C)Cc1ccc(/C=C/C(=O)NC2CC2)cc1
pEC50 [1]: 6.04 | pEC50 [2]: < 5.92 | CC50 [3]: > 10 µM

Cc1cnc(NC(=O)Nc2ccc(-c3ccc(NC(=O)Nc4ncc(C)s4)c(C)c3)cc2C)s1
pEC50 [1]: 7.47 | pEC50 [2]: 7.12 | CC50 [3]: > 10 µM

Cc1ccccc1C=NNc1nc2ccccc2[nH]1
pEC50 [1]: 6.22 | pEC50 [2]: 6.60 | CC50 [3]: > 100 µM
